Where two headings read alike, the source gives them in different places.
What was measured:
Experiment in all cases: microscale thermophoresis
Format in all cases: binding
PYL2 = biological target: T1, PYL2 (Arabidopsis thaliana, UniProt O80992)
T1 construct: NT-647-NHS labelled
T1 sequence (O80992 1-190): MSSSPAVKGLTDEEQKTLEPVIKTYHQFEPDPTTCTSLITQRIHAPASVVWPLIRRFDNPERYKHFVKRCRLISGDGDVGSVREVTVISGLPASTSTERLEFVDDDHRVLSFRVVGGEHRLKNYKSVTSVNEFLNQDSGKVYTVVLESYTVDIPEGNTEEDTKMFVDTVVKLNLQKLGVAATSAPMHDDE
Text: microscale thermophoresis on PYL2

PYL3 = biological target: T2, PYL3 (Arabidopsis thaliana, UniProt Q9SSM7)
T2 construct: NT-647-NHS labelled
T2 sequence (Q9SSM7 1-209): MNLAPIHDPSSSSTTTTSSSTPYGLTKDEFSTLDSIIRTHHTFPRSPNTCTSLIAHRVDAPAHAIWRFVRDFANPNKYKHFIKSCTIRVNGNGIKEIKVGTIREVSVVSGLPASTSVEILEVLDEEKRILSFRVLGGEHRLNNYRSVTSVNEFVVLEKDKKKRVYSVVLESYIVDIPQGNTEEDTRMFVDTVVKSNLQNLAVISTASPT

PYR1 = biological target: T3, PYR1 (Arabidopsis thaliana, UniProt O49686)
T3 construct: NT-647-NHS labelled; 'dimer PYR1' in the docking section
T3 sequence (O49686 1-191): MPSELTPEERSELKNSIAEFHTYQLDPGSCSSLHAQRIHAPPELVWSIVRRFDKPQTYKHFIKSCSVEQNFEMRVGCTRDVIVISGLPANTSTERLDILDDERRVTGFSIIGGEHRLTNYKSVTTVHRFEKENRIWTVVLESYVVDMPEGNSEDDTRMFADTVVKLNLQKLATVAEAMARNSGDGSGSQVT
Text: microscale thermophoresis on PYR1

PYL10 = biological target: T4, PYL10 (Arabidopsis thaliana, UniProt Q8H1R0)
T4 construct: NT-647-NHS labelled; 'monomer PYL10' in the docking section
T4 sequence (Q8H1R0 1-183): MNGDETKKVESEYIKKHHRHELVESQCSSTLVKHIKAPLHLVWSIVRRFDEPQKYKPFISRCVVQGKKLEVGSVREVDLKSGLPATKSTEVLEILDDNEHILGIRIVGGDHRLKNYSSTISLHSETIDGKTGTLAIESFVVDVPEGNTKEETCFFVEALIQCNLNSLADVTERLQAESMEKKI
Text: microscale thermophoresis on PYL10

PYL6 = biological target: T5, PYL6 (Arabidopsis thaliana, UniProt Q8S8E3)
T5 construct: NT-647-NHS labelled
T5 sequence (Q8S8E3 1-215): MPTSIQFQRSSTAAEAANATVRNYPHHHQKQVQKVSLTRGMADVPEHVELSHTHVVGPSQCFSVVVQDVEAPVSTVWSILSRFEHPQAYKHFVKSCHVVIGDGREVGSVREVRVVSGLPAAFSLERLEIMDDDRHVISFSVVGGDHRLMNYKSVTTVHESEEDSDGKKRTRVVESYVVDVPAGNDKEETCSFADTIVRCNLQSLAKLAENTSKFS
Text: microscale thermophoresis on PYL6

[1] = PBS, NT-647-NHS-labelled receptor

Molecule | Kd (PYL2) [µM] | Kd (PYL3) [µM] | Kd (PYR1) [µM] | Kd (PYL10) [µM] | Kd (PYL6) [µM] | Kd (PYL2; [1]) [µM] | Kd (PYL3; [1]) [µM] | Kd (PYR1; [1]) [µM] | Kd (PYL10; [1]) [µM] | Kd (PYL6; [1]) [µM]
COCCOCCOc1ccc2c(c1)C(=O)C(C)(C)CC2(O)/C=C/C(C)=C\C(=O)O (centres unmarked) [APA18] | 0.14 ± 0.02 | 9.33 ± 1.39 | 73.9 ± 5.28 | 37.5 ± 2.83 | 4.17 ± 0.93 | – | – | – | – | –
CCOCCOc1ccc2c(c1)C(=O)C(C)(C)CC2(O)/C=C/C(C)=C\C(=O)O (centres unmarked) [APA17] | 7.07 ± 0.21 | 19 ± 2.1 | 42.2 ± 6.71 | 23.9 ± 2.68 | 13.1 ± 1.46 | – | – | – | – | –
CC1=CC(=O)CC(C)(C)[C@@]1(O)/C=C/C(C)=C\C(=O)O [compound 1, ABA] | 16.2 ± 4.84 | – | 188 ± 29 | 152 ± 31 | 19.5 ± 3.92 | – | – | – | – | –
iso-PhABA | – | – | – | – | – | 7.54 ± 2.36 | 16.3 ± 2.78 | 187 ± 22.3 | 92 ± 5.13 | 6.77 ± 0.32
CC(=C/C(=O)O)/C=C/C1(O)CC(C)(C)C(=O)c2cc(OCCC(C)CCCC(C)C)ccc21 (centres unmarked) [APA15] | 2.04 ± 0.29 | 7.95 ± 1.66 | 37.9 ± 3.09 | 36.3 ± 2.18 | 1.99 ± 0.32 | – | – | – | – | –
CC(C)=CCCC(C)CCOc1ccc2c(c1)C(=O)C(C)(C)CC2(O)/C=C/C(C)=C\C(=O)O (centres unmarked) [APA16] | 5.84 ± 0.24 | 7.84 ± 0.95 | 53.4 ± 4.71 | 65 ± 2.76 | 2.1 ± 0.31 | – | – | – | – | –
CCCCCCOc1ccc2c(c1)C(=O)C(C)(C)CC2(O)/C=C/C(C)=C\C(=O)O (centres unmarked) [APA6] | 2.91 ± 0.17 | 4.09 ± 0.65 | 121 ± 13.6 | 44.9 ± 8.09 | 1.62 ± 0.17 | – | – | – | – | –
CC(=C/C(=O)O)/C=C/C1(O)CC(C)(C)C(=O)c2cc(OCCC(C)CC(C)(C)C)ccc21 (centres unmarked) [APA14] | 0.11 ± 0.01 | 5.18 ± 0.84 | 60.8 ± 9.02 | 45.5 ± 2.47 | 2.55 ± 0.46 | – | – | – | – | –
CC(=C/C(=O)O)/C=C/C1(O)CC(C)(C)C(=O)c2cc(OCCCCc3ccccc3)ccc21 (centres unmarked) [APA11] | 0.46 ± 0.09 | 3.11 ± 0.4 | 59.4 ± 3.41 | 17.6 ± 2.11 | 0.9 ± 0.22 | – | – | – | – | –
